# What was measured:
# Assay type in all cases: cell-based
# [1] = test system: E. coli DH5α; assay: Antibacterial activity: MIC and growth curve against E. coli DH5α in 96-well plate; details: minimal inhibitory concentration against E. coli DH5α; 96-well plate, 5×10^5 CFU/mL, 37° C., judged after 8 h
# How it was run: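 Log-phase bacteria (OD600 ~0.5) resuspended in LB at 5×10^5 CFU/mL, exposed to recombinant protein at 50, 25, 12.5 μg/mL final in triplicate, 37 °C shaking at 175 rpm. OD600 read every 30 min; MIC is lowest concentration showing no growth.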
# [2] = test system: E. coli BL21; assay: MIC against Gram-negative bacteria: E. coli BL21
# How it was run: (§1)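 First, colonies from LB agar were grown in LB at 37° C, 185 rpm, to McFarland turbidity 0.5, then centrifuged and resuspended in fresh LB. Next, wells received 5×10^5 CFU/mL bacteria plus two-fold serially diluted EGF domain protein (triplicate). Finally, plates were shaken at 37° C and the no-growth concentration taken as MIC.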
# [3] = test system: Pseudomonas aeruginosa; assay: MIC against Gram-negative bacteria: Pseudomonas aeruginosa; details: for MIC: P. aeruginosa
# How it was run: as §1
# [4] = test system: Klebsiella pneumonia; assay: MIC against Gram-negative bacteria: Klebsiella pneumonia; details: for MIC: K. pneumonia
# How it was run: as §1
# [5] = test system: Enterobacter cloacae; assay: MIC against Gram-negative bacteria: Enterobacter cloacae; details: for MIC: E. cloacae
# How it was run: as §1
# [6] = test system: Aeromonas hydrophila; assay: MIC against Gram-negative bacteria: Aeromonas hydrophila; details: for MIC: A. hydrophila
# How it was run: as §1
# [7] = test system: Citrobacter diversus; assay: MIC against Gram-negative bacteria: Citrobacter diversus; details: for MIC: C. diversus
# How it was run: as §1
# [8] = test system: Moraxella catarrhalis; assay: MIC against Gram-negative bacteria: Moraxella catarrhalis; details: for MIC: M. catarrhalis
# How it was run: as §1
# [9] = test system: Proteus mirabilis; assay: MIC against Gram-negative bacteria: Proteus mirabilis; details: for MIC: P. mirabilis
# How it was run: as §1
# [10] = test system: Proteus vulgaris; assay: MIC against Gram-negative bacteria: Proteus vulgaris; details: for MIC: P. vulgaris
# How it was run: as §1
# [11] = test system: Serratia marcescens; assay: MIC against Gram-negative bacteria: Serratia marcescens; details: for MIC: S. marcescens
# How it was run: as §1
# [12] = E. coli BL21, 5×10^5 CFU/mL, 10 h cultivation at 37° C.
# [13] = Pseudomonas aeruginosa, 5×10^5 CFU/mL, 10 h cultivation at 37° C.
# [14] = Klebsiella pneumonia, 5×10^5 CFU/mL, 10 h cultivation at 37° C.
# [15] = Enterobacter cloacae, 5×10^5 CFU/mL, 10 h cultivation at 37° C.
# [16] = Aeromonas hydrophila, 5×10^5 CFU/mL, 10 h cultivation at 37° C.
# [17] = Citrobacter diversus, 5×10^5 CFU/mL, 10 h cultivation at 37° C.
# [18] = Moraxella catarrhalis, 5×10^5 CFU/mL, 10 h cultivation at 37° C.
# [19] = Proteus mirabilis, 5×10^5 CFU/mL, 10 h cultivation at 37° C.
# [20] = Proteus vulgaris, 5×10^5 CFU/mL, 10 h cultivation at 37° C.
# [21] = Serratia marcescens, 5×10^5 CFU/mL, 10 h cultivation at 37° C.
# [22] = 10 h cultivation at 37° C., 5×10^5 CFU/mL
# [23] = 96-well plate, 5×10^5 CFU/mL, 37° C., 10 h
substance,measurement,setting,value
PRT1034 (DENECEQNNGGCSEICVNLKNSYRCECGVGRVLRSDGKTCE; listed as Homo sapiens),MIC,[1],25 µg/mL
same,MIC,"[2]; E. coli BL21, 10 h cultivation at 37° C.",50 µg/mL
same,MIC,[3]; 10 h cultivation at 37° C.,25 µg/mL
same,MIC,[4]; 10 h cultivation at 37° C.,12.5 µg/mL
same,MIC,[5]; 10 h cultivation at 37° C.,50 µg/mL
same,MIC,[6]; 10 h cultivation at 37° C.,50 µg/mL
same,MIC,[7]; 10 h cultivation at 37° C.,50 µg/mL
same,MIC,[8]; 10 h cultivation at 37° C.,12.5 µg/mL
same,MIC,[9]; 10 h cultivation at 37° C.,50 µg/mL
same,MIC,[10]; 10 h cultivation at 37° C.,12.5 µg/mL
same,MIC,[11]; 10 h cultivation at 37° C.,50 µg/mL
PRT1464 (CNCDKTGTINGSLLCNKSTGQCPCKLGVTGLRCNQCEPHRYNLTIDNFQHCQM; listed as Homo sapiens),MIC,[1],12.5 µg/mL
same,MIC against E. coli BL21,[2]; [12],25 µg/mL
same,MIC against P. aeruginosa,[3]; [13],12.5 µg/mL
same,MIC against K. pneumonia,[4]; [14],12.5 µg/mL
same,MIC against E. cloacae,[5]; [15],12.5 µg/mL
same,MIC against A. hydrophila,[6]; [16],12.5 µg/mL
same,MIC against C. diversus,[7]; [17],12.5 µg/mL
same,MIC against M. catarrhalis,[8]; [18],12.5 µg/mL
same,MIC against P. mirabilis,[9]; [19],12.5 µg/mL
same,MIC against P. vulgaris,[10]; [20],25 µg/mL
same,MIC against S. marcescens,[11]; [21],50 µg/mL
PRT428 (DVNECWASPGRLCQHTCENTLGSYRCSCASGFLLAADGKRCE; listed as Homo sapiens),MIC,[1],50 µg/mL
same,MIC,"[2]; E. coli BL21, 10 h cultivation at 37° C., 5×10^5 CFU/mL",25 µg/mL
same,MIC,[3]; [22],12.5 µg/mL
same,MIC,[4]; [22],25 µg/mL
same,MIC,[5]; [22],50 µg/mL
same,MIC,[6]; [22],25 µg/mL
same,MIC,[7]; [22],12.5 µg/mL
same,MIC,[8]; [22],50 µg/mL
same,MIC,[9]; [22],12.5 µg/mL
same,MIC,[10]; [22],50 µg/mL
same,MIC,[11]; [22],12.5 µg/mL
PRT95 (DINECETGQHNCVPNSVCINTRGSFQCGPCQPGFVGDQASGCQ; listed as Homo sapiens),MIC,[1],25 µg/mL
same,MIC (μg/mL) E. coli BL21,"[2]; E. coli BL21, 96-well plate, 5×10^5 CFU/mL, 37° C., 10 h",12.5 µg/mL
same,MIC (μg/mL) P. aeruginosa,"[3]; Pseudomonas aeruginosa, 96-well plate, 5×10^5 CFU/mL, 37° C., 10 h",50 µg/mL
same,MIC (μg/mL) K. pneumonia,"[4]; Klebsiella pneumonia, 96-well plate, 5×10^5 CFU/mL, 37° C., 10 h",12.5 µg/mL
same,MIC (μg/mL) E. cloacae,"[5]; Enterobacter cloacae, 96-well plate, 5×10^5 CFU/mL, 37° C., 10 h",50 µg/mL
same,MIC (μg/mL) A. hydrophila,"[6]; Aeromonas hydrophila, 96-well plate, 5×10^5 CFU/mL, 37° C., 10 h",12.5 µg/mL
same,MIC (μg/mL) C. diversus,"[7]; Citrobacter diversus, 96-well plate, 5×10^5 CFU/mL, 37° C., 10 h",50 µg/mL
same,MIC (μg/mL) M. catarrhalis,"[8]; Moraxella catarrhalis, 96-well plate, 5×10^5 CFU/mL, 37° C., 10 h",12.5 µg/mL
same,MIC (μg/mL) P. mirabilis,"[9]; Proteus mirabilis, 96-well plate, 5×10^5 CFU/mL, 37° C., 10 h",25 µg/mL
same,MIC (μg/mL) P. vulgaris,"[10]; Proteus vulgaris, 96-well plate, 5×10^5 CFU/mL, 37° C., 10 h",50 µg/mL
same,MIC (μg/mL) S. marcescens,"[11]; Serratia marcescens, 96-well plate, 5×10^5 CFU/mL, 37° C., 10 h",25 µg/mL
PRT1361 (SELICPNDCFDRGRCINGTCYCEEGFTGEDCG; listed as Homo sapiens),MIC,[1],25 µg/mL
same,MIC against E. coli BL21,[2]; [12],12.5 µg/mL
same,MIC against P. aeruginosa,[3]; [13],25 µg/mL
same,MIC against K. pneumonia,[4]; [14],50 µg/mL
same,MIC against E. cloacae,[5]; [15],12.5 µg/mL
same,MIC against A. hydrophila,[6]; [16],25 µg/mL
same,MIC against C. diversus,[7]; [17],50 µg/mL
same,MIC against M. catarrhalis,[8]; [18],25 µg/mL
same,MIC against P. mirabilis,[9]; [19],12.5 µg/mL
same,MIC against P. vulgaris,[10]; [20],25 µg/mL
same,MIC against S. marcescens,[11]; [21],50 µg/mL
PRT479 (AAMACSHQRCHGHGRCARRDPGQMEAFLHLWPDGSLGDWKSFSCHCYWGWAGPTCQ; listed as Homo sapiens),MIC,[1],25 µg/mL
same,MIC against E. coli BL21,[2]; [23],50 µg/mL
same,MIC against P. aeruginosa,[3]; [23],25 µg/mL
same,MIC against K. pneumonia,[4]; [23],12.5 µg/mL
same,MIC against E. cloacae,[5]; [23],25 µg/mL
same,MIC against A. hydrophila,[6]; [23],50 µg/mL
same,MIC against C. diversus,[7]; [23],25 µg/mL
same,MIC against M. catarrhalis,[8]; [23],12.5 µg/mL
same,MIC against P. mirabilis,[9]; [23],25 µg/mL
same,MIC against P. vulgaris,[10]; [23],50 µg/mL
same,MIC against S. marcescens,[11]; [23],25 µg/mL
PRT605 (CLCPDDPSSNQYFAHSCYQNLWSSDVICNCLQGYTGTQCGECSTGFYGNPRISGAPCQP; listed as Homo sapiens),MIC,[1],12.5 µg/mL
same,MIC E. coli BL21,[2]; [23],25 µg/mL
same,MIC P. aeruginosa,[3]; [23],50 µg/mL
same,MIC K. pneumonia,[4]; [23],25 µg/mL
same,MIC E. cloacae,[5]; [23],12.5 µg/mL
same,MIC A. hydrophila,[6]; [23],25 µg/mL
same,MIC C. diversus,[7]; [23],50 µg/mL
same,MIC M. catarrhalis,[8]; [23],25 µg/mL
same,MIC P. mirabilis,[9]; [23],12.5 µg/mL
same,MIC P. vulgaris,[10]; [23],25 µg/mL
same,MIC S. marcescens,[11]; [23],50 µg/mL

# — patent publication US9833497B2, “Human originated EGF domain proteins and use of the same” (CHENGDU SOURCEBIO LIMITED-LIABILITY COMPANY, priority 2013, dated 2017)
